Key:
human V2 receptor = human V2 receptor (Homo sapiens, UniProt P30518); experiment: In-vitro receptor binding assay (3H-arginine-8-vasopressin), V2
How it was run: (§1)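 Radioligand is 3H-arginine-8-vasopressin, incubated with receptor for one hour at room temperature, then filtered on GF/C plates and counted by scintillation. Non-specific binding was defined with 1.25 μM vasopressin, and results are given as % inhibition.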

V1a [1] = biological target: T1, V1a (Homo sapiens, UniProt P37288); experiment: In-vitro receptor binding assay (3H-arginine-8-vasopressin), V1a
How it was run: as §1

V1b = biological target: T2, V1b (Homo sapiens, UniProt P47901); experiment: In-vitro receptor binding assay (3H-arginine-8-vasopressin), V1b
T2 sequence (P47901 1-424): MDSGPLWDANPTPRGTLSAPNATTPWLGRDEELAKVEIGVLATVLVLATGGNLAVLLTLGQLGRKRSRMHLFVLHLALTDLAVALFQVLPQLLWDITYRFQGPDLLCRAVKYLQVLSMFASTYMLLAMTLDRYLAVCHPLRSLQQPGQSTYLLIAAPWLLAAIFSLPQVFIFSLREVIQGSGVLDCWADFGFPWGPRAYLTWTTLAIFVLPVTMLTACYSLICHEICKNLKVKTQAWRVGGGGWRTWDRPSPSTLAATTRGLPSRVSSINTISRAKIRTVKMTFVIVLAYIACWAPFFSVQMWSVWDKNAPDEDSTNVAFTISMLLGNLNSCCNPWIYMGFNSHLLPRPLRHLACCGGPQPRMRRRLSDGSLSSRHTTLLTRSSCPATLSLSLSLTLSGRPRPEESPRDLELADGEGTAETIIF
Experimental: (A) In-Vitro Binding Assay […] The reaction plates are allowed to sit at room temperature for one hour. The samples are filtered through Unifilter GF/C plates (presoaked in 0.3 polyethyleneimine). The plates are washed 5 times with cold physiological saline containing 0.05% Tween 20. After drying, the bottom of the filter plates are sealed and 0.025 ml of Microscint-20 is added to each filter. The top of the plate is sealed, and the plate is counted. Non-specific binding is determined by the addition of 1.25 μM […]-vasopressin in those wells. % Inh. is calculated as follows: […]

V1a [2] = biological target: T1, V1a; experiment: V1a vasopressin receptor functional activity (inhibition of vasopressin-induced intracellular calcium, FLIPR, V1a-HEK cells); format: cell-based; design: expressed in transfected cells; conditions: HEK-293 cells transfected with human V1a receptor; vasopressin challenge
Experimental: [formula] (B) V1a Vasopressin Receptor Functional Activity
The V1a receptor is a G-protein coupled receptor, which upon activation triggers an increase in intracellular calcium mobilization. To evaluate compounds for their functional V1a receptor activity, HEK-293 cells were transfected with the human V1a receptor (V1a-HEK cells). HEK-293 cells were grown in DMEM (Dulbecco's modified Eagle Media) supplemented with 10% FBS and glutamine. HEK-cells were passed biweekly by trypsinization and seeded into 96 well plates at 33,000 cells per well. HEK-293 cells were transfected with human V1a receptor DNA using DMRIE-C reagent from Life Technologies. Stable lines were generated by selecting cells grown in culture media containing geneticin. After growing in Packard Clear-View black 96 well plates for 4-6 days, V1a-HEK cells were loaded with the calcium-sensitive fluorescence dye, FLUO-3 AM. Changes in cell fluorescence were quantitated using FLIPR (Fluorometric Imaging Plate Reader; Molecular Devices, Sunnyvale, Calif.). Test compounds were first added to the cells and the resulting changes in fluorescence measured to detect receptor agonistic activity. Five minutes later the cells were challenged with vasopressin to test compounds for their antagonistic activity. Receptor antagonists inhibit the ability of vasopressin to stimulate increases in intracellular fluorescence. IC50's were calculated.

[3] = @ 10 μM, read-out: Receptor Binding V1b (% Inh. @ concentration in μM)

T1 sequence (P37288 whole entry): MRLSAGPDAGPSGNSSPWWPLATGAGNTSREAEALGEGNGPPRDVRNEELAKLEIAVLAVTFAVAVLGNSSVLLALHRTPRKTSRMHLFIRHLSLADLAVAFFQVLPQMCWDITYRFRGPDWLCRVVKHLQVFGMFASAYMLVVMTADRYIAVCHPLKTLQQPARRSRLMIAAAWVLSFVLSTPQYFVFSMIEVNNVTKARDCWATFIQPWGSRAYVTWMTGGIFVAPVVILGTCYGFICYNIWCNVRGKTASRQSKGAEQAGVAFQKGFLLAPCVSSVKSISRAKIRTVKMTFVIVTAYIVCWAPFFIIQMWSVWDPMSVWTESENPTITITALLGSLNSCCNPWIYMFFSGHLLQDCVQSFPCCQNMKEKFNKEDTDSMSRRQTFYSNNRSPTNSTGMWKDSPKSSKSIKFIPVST

Compound	IC50 (human V2 receptor)	IC50 (V1a [1])	IC50 (V1a [2])	further results
CN(C)CCNC(=O)C1=CC2(CC1)CCN(C(=O)c1ccc(NC(=O)c3ccccc3-c3ccccc3)cc1)c1ccccc1C2 (single isomer, unassigned) [Compound 21]	0.44 µM	0.181 µM	0.008 µM	inhibition at 10 µM (V1b; [3]): 7%
CN(C)CCNC(=O)C1=C[C@]2(CC1)CCN(C(=O)c1ccc(NC(=O)c3ccccc3-c3ccccc3)cc1)c1ccccc1C2 [Compound 20, (S)-4-(2-phenylbenzoyl-4-aminobenzoyl)-3′-(2-(N,N-dimethylaminoethylaminocarbonyl))-4-aza-[6,4]-spiro-[5,6]-benzoundec-2′-ene]	0.016 µM	0.003 µM	0.002 µM	Receptor Binding V1b (% Inh. @ concentration in μM) (V1b; @ 10 μM): 13% @ 10
COC(=O)c1ccc(C(=O)N2CCC3(C=CCCC3)Cc3ccccc32)cc1 (stereo not shown) [Compound 54, 4-(4-Carbomethoxybenzoyl)-4-aza-[6,5]-spiro-[5,6]-benzododec-2′-ene]	10 µM	0.33 µM	0.067 µM	–
O=C(Nc1ccc(C(=O)N2CCC3(C=CCCC3)Cc3ccccc32)cc1)c1ccccc1-c1ccccc1 (stereo not shown) [Compound 66, 4-(2-Phenylbenzoyl-4-aminobenzoyl)-4-aza-[6,5]-spiro-[5,6]-benzododec-2′-ene]	0.19 µM	0.83 µM	0.025 µM	–
Cc1cc(F)ccc1C(=O)Nc1ccc(C(=O)N2CCC3(C=CCCC3)Cc3ccccc32)cc1 (stereo not shown) [Compound 99]	–	0.041 µM	0.08 µM	inhibition at 1 µM (human V2 receptor; @ 1 μM, read-out: Receptor Binding V2 (% Inh. @ concentration in μM)): 35%
O=C(Nc1ccc(C(=O)N2CCC3(C=CCCC3)Cc3ccccc32)cc1)c1ccccc1F (stereo not shown) [Compound 101, 4-(2-Fluorobenzoyl-4-aminobenzoyl)-4-aza-[6,5]-spiro-[5,6]-benzododec-2′-ene]	0.55 µM	0.01 µM	0.06 µM	–
O=C(Nc1ccc(C(=O)N2CCC3(C=CCCC3)Cc3ccccc32)c(Cl)c1)c1ccccc1F (stereo not shown) [Compound 110]	1 µM	0.9 µM	2.57 µM	–
(R)-4-(2-fluorophenylbenzoyl-4-aminobenzoyl)-3′-(2-(N,N-dimethylaminoethylaminocarbonyl))-4-aza-[6,4]-spiro-[5,6]-benzoundec-2′-ene [Compound 23]	–	–	–	Receptor Binding V2 (% Inh. @ concentration in μM) (human V2 receptor; @ 0.1 μM): 1% @ 0.1; Receptor Binding V1a (% Inh. @ concentration in μM) (V1a [1]; @ 0.1 μM): 15% @ 0.1; IC50 (V1b): 13.7 µM

More lines, main results first:

IC50 (human V2 receptor)	IC50 (V1a [1])	IC50 (V1a [2])	Compound	further results
–	0.004 µM	0.099 µM	O=C(NCCO)C1=CC2(CC1)CCN(C(=O)c1ccc(NC(=O)c3ccccc3F)cc1)c1ccccc1C2 (stereo not shown) [Compound 8]	inhibition at 0.1 µM (V1b; @ 0.1 μM, read-out: Receptor Binding V1b (% Inh. @ concentration in μM)): 41%
0.011 µM	0.005 µM	0.004 µM	CN(C)CCNC(=O)C1=CC2(CC1)CCN(C(=O)c1ccc(NC(=O)c3ccccc3-c3ccccc3)cc1)c1ccccc1C2 (stereo not shown) [Compound 9, 4-(2-Phenylbenzoyl-4-aminobenzoyl)-3′-[2-(N,N-dimethylaminoethylcarbonyl)]-4-aza-[6,4]-spiro-[5,6]-benzoundec-2′-ene]	inhibition at 10 µM (V1b; [3]): 12%
–	0.008 µM	0.126 µM	CN(C)CCNC(=O)C1=CC2(CC1)CCN(C(=O)c1ccc(NC(=O)c3ccccc3F)cc1)c1ccccc1C2 (stereo not shown) [Compound 16, 4-(2-Fluorobenzoyl-4-aminobenzoyl)-3′-[2-(N,N-dimethylaminoethylcarbonyl)]-4-aza-[6,4]-spiro-[5,6]-benzoundec-2′-ene]	inhibition at 0.1 µM (human V2 receptor; @ 0.1 μM, read-out: Receptor Binding V2 (% Inh. @ concentration in μM)): 17%; inhibition at 10 µM (V1b; [3]): 8%
–	0.008 µM	0.155 µM	O=C(NCCN1CCCC1)C1=CC2(CC1)CCN(C(=O)c1ccc(NC(=O)c3ccccc3F)cc1)c1ccccc1C2 (stereo not shown) [Compound 19]	Receptor Binding V1b (% Inh. @ concentration in μM) (V1b; @ 0.1 μM): 22% @ 0.1
0.07 µM	0.01 µM	0.14 µM	Cc1ccccc1C(=O)Nc1ccc(C(=O)N2CCC3(C=CCCC3)Cc3ccccc32)cc1 (stereo not shown) [Compound 69]	–
0.067 µM	0.008 µM	0.05 µM	Cc1cc(F)ccc1C(=O)Nc1ccc(C(=O)N2CCC3(C=CCCC3)Cc3ccccc32)cc1 (stereo not shown) [Compound 100]	–
–	0.003 µM	–	(S)-4-(2-fluorophenylbenzoyl-4-aminobenzoyl)-3′-(2-(N,N-dimethylaminoethylaminocarbonyl))-4-aza-[6,4]-spiro-[5,6]-benzoundec-2′-ene [Compound 22]	Receptor Binding V2 (% Inh. @ concentration in μM) (human V2 receptor; @ 0.1 μM): 15% @ 0.1; Receptor Binding V1b (% Inh. @ concentration in μM) (V1b; @ 10 μM): 17% @ 10
